Test results published in patent publication US20230338391A1, “TREATMENT FOR DEPRESSION” (TAKEDA PHARMACEUTICAL COMPANY LIMITED, priority 2020, published 2023).
Values joined by “and” are separate entries in the source; they are usually repeats but may differ in a detail not shown here. Equal values may be shown once. Read-outs that look alike come from different tables or passages of the source.

Columns and labels:
[1] = Population PK modeling and simulation; design: species or system human
Description: Data processing and graphical visualization was performed using Matlab (version R2019a; The MathWorks, Inc., Natick, Massachusetts, United States).
The Stochastic Approximation of Expectation Maximization (SAEM) algorithm, a stochastic algorithm for calculating the maximum likelihood estimator, was selected as model-estimation method for its ability to accurately estimate population parameters.
Model building and selection was based on the following criteria/procedures: • Evaluation of individual and population parameter estimates and their precision (precision was quantified using the percentage of relative standard error (% RSE)); • Graphical examination of diagnostic and goodness-of-fit plots; • Analysis of correlation matrix of the estimates and condition number; • Reduction in both residual variability and inter-individual variability; and • Reduction in log likelihood (−2LL), Akaike Information Criterion (AIC) and Bayesian Information Criterion (BIC) for all nested models.
The base model was built by using these criteria to compare different structural models (e.g., one-compartment, two-compartment, three-compartment) with different absorption (e.g., zero order, first order) and elimination (e.g., linear, nonlinear) processes. Development of the base model was performed by adding inter-individual variability (IIV) on one structural parameter at a time and applying the set criteria to select the best model. IIV was generally modeled as an exponential term as follows:
A covariate model was then built to further reduce the unexplained inter-individual variability. Development of the covariate model was performed using the forward selection and backward elimination method. In the forward selection step, covariates were tested one at the time. […] In the backward elimination step, covariates were eliminated one at the time and changes in −2LL recorded.
The final model was evaluated using a visual predictive check, a simulation-based method to visually assess concordance of the model-based simulations and observed data. Bootstrap analysis was also performed to determine the precision of the parameter estimates, estimate confidence interval of identified parameters and assess the stability of the model. […]

[2] = 14-day rat neurotoxicology study: toxicokinetics; format: in vivo, Sprague-Dawley rats; settings: for AUC / concentration at 15 day / Cmax: Sprague-Dawley, rat, plasma; for concentration at 15 day: read-out: plasma level at the time of sacrifice
Description: An appropriate amount of methylcellulose (MC) was weighed and mixed with a small amount of warm water for injection. The mixture was then diluted with water for injection to make a 0.5% (w/v) MC solution. The vehicle was used for dosing in the control group. To make a 40 mg/mL suspension of COMPOUND A, an appropriate amount of the test article was weighed and mixed with the vehicle using a planetary centrifugal mixer and the mixture was then diluted with additional vehicle. The 40 mg/mL suspension was used to make 20 and 10 mg/mL suspensions by stepwise dilutions with the vehicle. The dosing suspensions were stored in a refrigerator (actual values: 3.7° C. to 6.1° C., acceptable range: 2° C. to 8° C.) under light-resistant conditions (tight container) and used within 8 days after preparation.
Males and females in good condition were selected for this study based on examinations within 4 days before the first dosing. Based on their body weights, animals were stratified and allocated randomly to 3 main study groups, each composed of 18 males and 18 females, and 2 satellite groups each composed of 9 males and 9 females for determination of plasma drug and metabolite concentrations. Surplus animals after animal selection were excluded from the study on the day after the animal selection or the day dosing commenced (Day 1).
Referring to Tables 4A and 4B, the plasma concentrations of COMPOUND A on Days 2, 7, and 14 were determined in each satellite group. Blood samples (approximately 0.25 mL) were drawn without anesthesia from the subclavian vein of 3 animals of each sex in the satellite groups at each sampling point using sodium-heparinized syringes. Sampling points were as follows: pre-dose and at 1, 2, 4, 8, and 24 hours post-dose. In addition, the plasma concentrations of COMPOUND A before scheduled necropsy were determined in each main study group. The plasma samples (≥0.08 mL) in polypropylene tubes were frozen and stored in a freezer (actual values: −87.0° C. to −83.5° C.) until shipment with parallel quality control (QC) samples prepared by test site 2 and stored under the same conditions as study plasma samples in the test facility. The samples, including the parallel QC samples, were packed with dry ice and shipped to test site 2. The samples were stored frozen at −85.8° C. to −75.5° C. until assay. The plasma concentrations of COMPOUND A and its metabolites, were determined by liquid chromatography/tandem mass spectrometry (LC/MS/MS) and the TK parameters (tmax, Cmax, and AUC24 value) on Days 2, 7, and 14 were calculated for the satellite groups at test site 2.

[3] = final POPPK model, inter-individual variability
[4] = final POPPK model, residual error

SMILES: CC1=CN2CCS(=O)(=O)N=C2C(c2ccc(OC3CCCCC3)cc2)=N1 [COMPOUND A, 9-[4-(Cyclohexyloxy)phenyl]-7-methyl-3,4-dihydropyrazino[2,1-c][1,2,4]thiadiazine 2,2-dioxide]
- Additive Error, median bootstrap parameter estimate ([1]; bootstrap analysis): 0.34 SD
- CL/F_IIV, median bootstrap parameter estimate ([1]; bootstrap analysis): 61.97 % CV
- KA IIV, median bootstrap parameter estimate ([1]; bootstrap analysis): 97.18 % CV
- Proportional Error, median bootstrap parameter estimate ([1]; bootstrap analysis): 37.72 % CV
- TLag IIV, median bootstrap parameter estimate ([1]; bootstrap analysis): 67.78 % CV
- V/F_IIV, median bootstrap parameter estimate ([1]; bootstrap analysis): 33.27 % CV
- CL/F_IIV, population parameter estimate [1, 3]: 62.53 % CV
- KA IIV, population parameter estimate [1, 3]: 98.99 % CV
- TLag IIV, population parameter estimate [1, 3]: 69.17 % CV
- V/F_IIV, population parameter estimate [1, 3]: 33.77 % CV
- Additive Error, population parameter estimate [1, 4]: 0.35 SD
- Proportional Error, population parameter estimate [1, 4]: 37.56 % CV
- plasma level at the time of sacrifice ([2]; Day 15, females at 200 mg/kg/day not observed to convulse, no brain histopathology, individual animals, 200 mg/kg/day): 192 ng/mL and 968 ng/mL and 114 ng/mL
- plasma level at the time of sacrifice ([2]; Day 15, females at 200 mg/kg/day with lesions visible with Fluoro-Jade only, individual animals, 200 mg/kg/day): 138 ng/mL
- AUC ([2]; both sexes, oral, 100 mg/kg/day, NOAEL 100 mg/kg/day, read-out: NOAEL exposure cap (AUC) from the 14-day neurotoxicity study in rats): 17400 ng·h/mL
- concentration at 15 day ([2]; female, oral, 200 mg/kg/day, Day 15, female at 200 mg/kg/day with lesions visible with both HE and Fluoro-Jade, individual animal): 935 ng/mL
- concentration at 15 day ([2]; female, oral, 200 mg/kg/day, Day 15, females at 200 mg/kg/day with lesions visible with Fluoro-Jade only, individual animals): 182 ng/mL
- Cmax ([2]; female, po, 100 mg/kg/day, 100 mg/kg/day oral, female, Day 2): 1640 ng/mL
- AUC ([2]; female, po, 100 mg/kg/day, 100 mg/kg/day oral, female, Day 2, read-out: AUC24): 20500 ng·h/mL
- Cmax ([2]; female, po, 100 mg/kg/day, 100 mg/kg/day oral, female, Day 7): 1270 ng/mL
- AUC ([2]; female, po, 100 mg/kg/day, 100 mg/kg/day oral, female, Day 7, read-out: AUC24): 14900 ng·h/mL
- Cmax ([2]; female, po, 100 mg/kg/day, 100 mg/kg/day oral, female, Day 14): 1670 ng/mL
- AUC ([2]; female, po, 100 mg/kg/day, 100 mg/kg/day oral, female, Day 14, read-out: AUC24): 17800 ng·h/mL
- Cmax ([2]; female, po, 200 mg/kg/day, 200 mg/kg/day oral, female, Day 2): 1630 ng/mL
- AUC ([2]; female, po, 200 mg/kg/day, 200 mg/kg/day oral, female, Day 2, read-out: AUC24): 18000 ng·h/mL
- Cmax ([2]; female, po, 200 mg/kg/day, 200 mg/kg/day oral, female, Day 7): 2340 ng/mL
- AUC ([2]; female, po, 200 mg/kg/day, 200 mg/kg/day oral, female, Day 7, read-out: AUC24): 31800 ng·h/mL
- Cmax ([2]; female, po, 200 mg/kg/day, 200 mg/kg/day oral, female, Day 14): 2210 ng/mL
- AUC ([2]; female, po, 200 mg/kg/day, 200 mg/kg/day oral, female, Day 14, read-out: AUC24): 27600 ng·h/mL
- Cmax ([2]; male, po, 50 mg/kg/day, 50 mg/kg/day oral, male, Day 2): 836 ng/mL
- AUC ([2]; male, po, 50 mg/kg/day, 50 mg/kg/day oral, male, Day 2, read-out: AUC24): 9480 ng·h/mL
- Cmax ([2]; male, po, 50 mg/kg/day, 50 mg/kg/day oral, male, Day 7): 841 ng/mL
- AUC ([2]; male, po, 50 mg/kg/day, 50 mg/kg/day oral, male, Day 7, read-out: AUC24): 10700 ng·h/mL
- Cmax ([2]; male, po, 50 mg/kg/day, 50 mg/kg/day oral, male, Day 14): 728 ng/mL
- AUC ([2]; male, po, 50 mg/kg/day, 50 mg/kg/day oral, male, Day 14, read-out: AUC24): 8750 ng·h/mL
- Cmax ([2]; male, po, 100 mg/kg/day, 100 mg/kg/day oral, male, Day 2): 1200 ng/mL
- AUC ([2]; male, po, 100 mg/kg/day, 100 mg/kg/day oral, male, Day 2, read-out: AUC24): 15000 ng·h/mL
- Cmax ([2]; male, po, 100 mg/kg/day, 100 mg/kg/day oral, male, Day 7): 917 ng/mL
- AUC ([2]; male, po, 100 mg/kg/day, 100 mg/kg/day oral, male, Day 7, read-out: AUC24): 13000 ng·h/mL
- Cmax ([2]; male, po, 100 mg/kg/day, 100 mg/kg/day oral, male, Day 14): 1290 ng/mL
- AUC ([2]; male, po, 100 mg/kg/day, 100 mg/kg/day oral, male, Day 14, read-out: AUC24): 17000 ng·h/mL
